In this test the test system is Na+-dependent Cl−/HCO3− exchanger (NCBE). Briefly: Inhibition of the Na+-dependent Cl−/HCO3− exchanger (NCBE) in human endothelial cells (pHi recovery, BCECF fluorescence, FLIPR). Particulars: inhibitor concentration of 10 μM; human endothelial cells (ECV-304); relative to 100% and 0% pHi recovery controls, 50 μM HOE 642 present. It is filed as cell-based. As to the method: Inhibition of the Na^+-dependent Cl^−/HCO3^− exchanger (NCBE) in human endothelial cells
Human endothelial cells (ECV-304) were detached from culture bottles with the aid of trypsin/EDTA buffer (0.05/0.02% in phosphate buffer) and, after centrifugation (100 g, 5 min), taken up in a buffered salt solution (mmol/l: 115 NaCl, 20 NH4Cl, 5 KCl, 1 CaCl2, 1 MgSO4, 20 N-(2-hydroxyethyl)piperazine-N′-2-ethanesulfonic acid (HEPES), 5 glucose and 1 g/l of bovine serum albumin; pH 7.4). This cell suspension was incubated at 37° C. for 20 min with 5 μM BCECF-acetoxymethyl ester. The cells were then washed and resuspended in a sodium- and bicarbonate-free buffer solution (mmol/l: 5 HEPES, 133.8 choline chloride, 4.7 KCl, 1.25 MgCl2, 0.97 K2HPO4, 0.23 KH2PO4, 5 glucose; pH 7.4).
For subsequent fluorescence measurement in an FLIPR (Fluorescent Imaging Plate Reader) 100 μl of this cell suspension having 20,000 cells in each case were pipetted per well into a 96-well microtiter plate and this microtiter plate was centrifuged (100 g, 5 min).
In the FLIPR, 100 μl of buffer solution in each case were then removed from a further pretreated microtiter plate and pipetted into each of the 96 wells of the measurement plate. A bicarbonate- and sodium-containing buffer solution (mmol/l: 5 HEPES, 93.8 NaCl, 40 NaHCO3, 4.7 KCl, 1.25 CaCl2, 1.25 MgCl2, 0.97 Na2HPO4, 0.23 NaH2PO4, 5 glucose; pH 7.4) which contained 50 μM HOE 642 was used for a 100% control, i.e. a recovery of the intracellular pH (pHi) via the NCBE. For a 0% control, i.e. no pHi recovery at all, the bicarbonate-free, sodium-containing buffer solution (mmol/l: 5 HEPES, 133.8 NaCl, 4.7 KCl, 1.25 CaCl2, 1.25 MgCl2, 0.97 Na2HPO4, 0.23 NaH2PO4, 5 glucose; pH 7.4) was employed, to which 50 μM HOE 642 were likewise added. The compounds according to the invention were added to the sodium- and bicarbonate-containing solution in various concentrations.
After addition of the buffer solutions to the dye-loaded, acidified cells in the measurement plate, the rise in the fluorescence intensity which corresponded to a rise in the pHi in each well of the microtiter plate was determined. The kinetics were in this case recorded at 35° C. for a period of 2 minutes.
The increase in the fluorescence intensities for different concentrations of the compounds according to the invention was related to the two controls and from this inhibitory action of the substances was determined.
Residual Activity of the NCBE at an Inhibitor Concentration of 10 μM
For the molecule `CCCCc1nc(SC)cn1Cc1ccc(-c2ccccc2S(=O)(=O)NC#N)cc1` [Example 27, 4′-(2-Butyl-4-methylsulfanylimidazol-1-ylmethyl)biphenyl-2-sulfonylcyanamide], the “Residual activity in % (residual activity of the NCBE)” value (from here on “Residual activity in %”) turned out to be 50.0%.

With `COc1nc(-c2ccccc2)n(Cc2ccc(-c3ccccc3S(=O)(=O)NC#N)cc2)c1C=O` [Example 12, 4′-(4-Methoxy-5-formyl-2-phenylimidazol-1-ylmethyl)biphenyl-2-sulfonylcyanamide], the “Residual activity in %” value was 20.8%.

With `CC(=O)c1c(Cl)nc(-c2ccccc2)n1Cc1ccc(-c2ccccc2S(=O)(=O)NC#N)cc1` [Example 29, 4′-(5-Acetyl-4-chloro-2-phenylimidazol-1-ylmethyl)biphenyl-2-sulfonylcyanamide], the “Residual activity in %” value is 39.6%.

For the molecule `N#CNS(=O)(=O)c1ccccc1-c1ccc(Cn2c(-c3ccccc3)nc(Oc3ccccc3)c2C=O)c(Cl)c1` [Example 35, 3′-Chloro-4′-(4-phenoxy-5-formyl-2-phenyl-imidazole-1-ylmethyl)biphenyl-2-sulfonylcyanamide], the “Residual activity in %” value was 3.2%.

For `COc1nc(-c2ccccc2)n(Cc2ccc(-c3ccccc3S(=O)(=O)NC#N)cc2)c1C(C)=O` [Example 30, 4′-(5-Acetyl-4-methoxy-2-phenylimidazol-1-ylmethyl)biphenyl-2-sulfonylcyanamide], the “Residual activity in %” value amounted to 48.8%.

With `COc1nc(-c2ccccc2)n(Cc2ccc(-c3ccccc3S(=O)(=O)NC#N)cc2Cl)c1C=O` [Example 34, 3′-Chloro-4′-(4-methoxy-5-formyl-2-phenyl-imidazole-1-ylmethyl)biphenyl-2-sulfonylcyanamide], the “Residual activity in %” value was 5.5%.

Regarding `N#CNS(=O)(=O)c1ccccc1-c1ccc(Cn2c(-c3ccccc3)nc(-c3ccccc3)c2-c2ccccc2)cc1` [Example 31, 4′-(2,4,5-Triphenylimidazol-1-ylmethyl)biphenyl-2-sulfonylcyanamide], the “Residual activity in %” value came out at 36.5%.

As to `N#CNS(=O)(=O)c1ccccc1-c1ccc(Cn2cc(Cl)nc2-c2ccccc2)cc1` [Example 28, 4′-(4-Chloro-2-phenylimidazol-1-ylmethyl)biphenyl-2-sulfonylcyanamide], the “Residual activity in %” value is listed as 30.5%.

In the case of `CCCCc1nc(SC)c(C(=O)OCC)n1Cc1ccc(-c2ccc(S(=O)(=O)NC#N)cc2C(F)(F)F)cc1` [Example 23, Ethyl 2-butyl-5-methylsulfanyl-3-(4′-cyanoaminosulfonyl-2′-trifluoromethylbiphenyl-4-ylmethyl)-3H-imidazole-4-carboxylate], the “Residual activity in %” value is 31.6%.

As for `N#CNS(=O)(=O)c1ccccc1-c1ccc(Cn2c(-c3ccccc3)nc(Cl)c2C=O)cc1` [Example 11, 4′-(4-Chloro-5-formyl-2-phenylimidazol-1-ylmethyl)biphenyl-2-sulfonylcyanamide], the “Residual activity in %” value is on record as 15.0%.

As to `N#CNS(=O)(=O)c1ccccc1-c1ccc(Cn2c(-c3ccccc3)nc(Cl)c2C=O)c(F)c1` [Example 33, 3′-Fluoro-4′-(4-chloro-5-formyl-2-phenyl-imidazole-1-ylmethyl)biphenyl-2-sulfonylcyanamide], the “Residual activity in %” value was 7.6%.

In the case of `CCCCc1nc(SC)c(C(=O)OCC)n1Cc1ccc(-c2cccc(S(=O)(=O)NC#N)c2)cc1` [Example 2, Ethyl 2-butyl-5-methylsulfanyl-3-(3′-cyanoaminosulfonylbiphenyl-4-ylmethyl)-3H-imidazole-4-carboxylate], the “Residual activity in %” value was 39.6%.

Regarding `N#CNS(=O)(=O)c1ccccc1-c1ccc(Cn2c(-c3ccccc3)nc(Cl)c2C=O)c(Cl)c1` [Example 32, 3′-Chloro-4′-(4-chloro-5-formyl-2-phenylimidazol-1-ylmethyl)biphenyl-2-sulfonylcyanamide], the “Residual activity in %” value stood at 7.8%.
